Test results reported in patent US9999619B2, “Piperidin-4-yl azetidine derivatives as JAK1 inhibitors” (Incyte Corporation, priority 2010, dated 2018).

Assays:
Assay type in all cases: biochemical
Jak2 (a.a. 828-1132) = Jak2 (a.a. 828-1132) (Homo sapiens (Human), UniProt O60674); assay: In vitro JAK kinase assay (HTRF, phosphorylation of a biotinylated peptide), JAK2; details: measured at 1 mM ATP
Procedure, shortened: (§1)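 Phosphorylation of a biotinylated peptide by purified His-tagged JAK catalytic domains (insect-cell baculovirus expression) ran 1 hr at room temperature. After stopping with EDTA, Eu-Py20 and SA-APC were bound for 40 minutes and HTRF measured.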

[1] = target: human JAK1 (a.a. 837-1142); assay: In vitro JAK kinase assay (HTRF, phosphorylation of a biotinylated peptide), JAK1; details: ratio of JAK2 IC50 to JAK1 IC50, measured at 1 mM ATP
Procedure, shortened: as §1

[2] = target: human JAK1 (a.a. 837-1142) (Homo sapiens, UniProt P23458); assay: as above; details: measured at 1 mM ATP
Procedure, shortened: as §1

Sequence of Jak2 (a.a. 828-1132) (O60674 828-1132): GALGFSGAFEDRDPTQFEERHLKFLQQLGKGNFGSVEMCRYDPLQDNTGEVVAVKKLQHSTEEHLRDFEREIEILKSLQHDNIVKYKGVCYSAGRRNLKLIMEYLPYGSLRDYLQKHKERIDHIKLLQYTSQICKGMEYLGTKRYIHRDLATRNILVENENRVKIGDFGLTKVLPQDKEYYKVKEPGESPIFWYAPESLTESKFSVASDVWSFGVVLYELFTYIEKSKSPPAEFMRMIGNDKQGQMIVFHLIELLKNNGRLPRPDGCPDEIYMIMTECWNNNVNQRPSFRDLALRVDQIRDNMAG

| Compound | IC50 (Jak2 (a.a. 828-1132)) [µM] | IC50 Ratio JAK2/JAK1 [1] | IC50 [2] [µM] |
| --- | --- | --- | --- |
| N#CCC1(n2cc(-c3ccnc4[nH]ccc34)cn2)CN(C2CCN(C(=O)c3cnc(C(F)(F)F)cn3)CC2)C1 [Example 301, [3-[4-(1H-pyrrolo[2,3-b]pyridin-4-yl)-1H-pyrazol-1-yl]-1-(1-{[5-(trifluoromethyl)pyrazin-2-yl]carbonyl}piperidin-4-yl)azetidin-3-yl]acetonitrile] | 0.05 to 0.1 | 3.3 | 0.02 to 0.03 |
| N#CCC1(n2cc(-c3ncnc4[nH]ccc34)cn2)CN(C2CCN(S(=O)(=O)c3ccc(C#N)cc3)CC2)C1 [Example 249, 4-[(4-{3-(cyanomethyl)-3-[4-(7H-pyrrolo[2,3-d]pyrimidin-4-yl)-1H-pyrazol-1-yl]azetidin-1-yl}piperidin-1-yl)sulfonyl]benzonitrile] | 0.01 to 0.05 | 2.1 | 0.005 to 0.02 |
| N#CCC1(n2cc(-c3ncnc4[nH]ccc34)cn2)CN(C2CC3CCC(C2)N3C(=O)c2ccc(C#N)c(F)c2)C1 (stereo not drawn) [Example 140, 4-[(3-{3-(cyanomethyl)-3-[4-(7H-pyrrolo[2,3-d]pyrimidin-4-yl)-1H-pyrazol-1-yl]azetidin-1-yl}-8-azabicyclo[3.2.1]oct-8-yl)carbonyl]-2-fluorobenzonitrile] | 0.01 to 0.05 | 5.4 | 0.005 to 0.02 |
| N#CCC1(n2cc(-c3ncnc4[nH]ccc34)cn2)CN(C2CCN(C(=O)C3CCC(C(F)(F)F)CC3)CC2)C1 (stereo not drawn) [Example 98, {3-[4-(7H-pyrrolo[2,3-d]pyrimidin-4-yl)-1H-pyrazol-1-yl]-1-(1-{[4-(trifluoromethyl)cyclohexyl]carbonyl}piperidin-4-yl)azetidin-3-yl]acetonitrile] | 0.05 to 0.1 | 3.7 | 0.005 to 0.02 |
| N#CCC1(n2cc(-c3ncnc4[nH]ccc34)cn2)CN(C2CCN(C(=O)c3cccc(C(F)(F)F)c3F)CC2)C1 [Example 7, {1-{1-[2-fluoro-3-(trifluoromethyl)benzoyl]piperidin-4-yl}-3-[4-(7H-pyrrolo[2,3-d]pyrimidin-4-yl)-1H-pyrazol-1-yl]azetidin-3-yl}acetonitrile] | ≤ 0.01 | 10.8 | ≤ 0.005 |
| N#CCC1(n2ccc(-c3ncnc4[nH]ccc34)c2)CN(C2CCN(C(=O)c3cc(C(F)(F)F)ccc3F)CC2)C1 [Example 273, {1-{1-[2-fluoro-5-(trifluoromethyl)benzoyl]piperidin-4-yl}-3-[3-(7H-pyrrolo[2,3-d]pyrimidin-4-yl)-1H-pyrrol-1-yl]azetidin-3-yl}acetonitrile] | ≤ 0.01 | 4.4 | ≤ 0.005 |
| N#CCC1(n2ccc(-c3ncnc4[nH]ccc34)c2)CN(C2CCN(C(=O)c3ccc(O)c(C(F)(F)F)c3)CC2)C1 [Example 282, {1-{1-[4-hydroxy-3-(trifluoromethyl)benzoyl]piperidin-4-yl}-3-[3-(7H-pyrrolo[2,3-d]pyrimidin-4-yl)-1H-pyrrol-1-yl]azetidin-3-yl}acetonitrile] | 0.01 to 0.05 | 3.4 | 0.005 to 0.02 |
| N#CCC1(n2ccc(-c3ncnc4[nH]ccc34)c2)CN(C2CCN(C(=O)c3cc(OC(F)(F)F)ccc3F)CC2)C1 [Example 269, {1-{1-[2-fluoro-5-(trifluoromethoxy)benzoyl]piperidin-4-yl}-3-[3-(7H-pyrrolo[2,3-d]pyrimidin-4-yl)-1H-pyrrol-1-yl]azetidin-3-yl}acetonitrile] | 0.01 to 0.05 | 5.0 | ≤ 0.005 |
| N#CCC1(n2cc(-c3ncnc4[nH]ccc34)cn2)CN(C2CCN(C(=O)c3cc(Cl)cc(C(F)(F)F)n3)CC2)C1 [Example 53, {1-(1-{[4-chloro-6-(trifluoromethyl)pyridin-2-yl]carbonyl}piperidin-4-yl)-3-[4-(7H-pyrrolo[2,3-d]pyrimidin-4-yl)-1H-pyrazol-1-yl]azetidin-3-yl}acetonitrile] | 0.01 to 0.05 | 9.4 | ≤ 0.005 |

Second part, the molecule after the results:

| IC50 (Jak2 (a.a. 828-1132)) [µM] | IC50 Ratio JAK2/JAK1 [1] | IC50 [2] [µM] | Compound |
| --- | --- | --- | --- |
| ≤ 0.01 | 2.5 | ≤ 0.005 | COC(=O)c1cc(F)ccc1NC(=O)N1CCC(N2CC(CC#N)(n3cc(-c4ncnc5[nH]ccc45)cn3)C2)CC1 [Example 207, methyl 2-{[(4-{3-(cyanomethyl)-3-[4-(7H-pyrrolo[2,3-d]pyrimidin-4-yl)-1H-pyrazol-1-yl]azetidin-1-yl}piperidin-1-yl)carbonyl]amino}-5-fluorobenzoate] |
| 0.01 to 0.05 | 15.0 | ≤ 0.005 | N#CCC1(n2cc(-c3ncnc4[nH]ccc34)cn2)CN(C2CCN(C(=O)Nc3cscc3Br)CC2)C1 [Example 159, N-(4-bromo-3-thienyl)-4-{3-(cyanomethyl)-3-[4-(7H-pyrrolo[2,3-d]pyrimidin-4-yl)-1H-pyrazol-1-yl]azetidin-1-yl}piperidine-1-carboxamide] |
| 0.05 to 0.1 | 5.8 | 0.005 to 0.02 | N#CCC1(n2cc(-c3c(C#N)cnc4[nH]ccc34)cn2)CN(C2CCN(C(=O)c3cc(C(F)(F)F)ncc3F)CC2)C1 [Example 356, 4-[1-(3-(Cyanomethyl)-1-{1-[5-fluoro-2-(trifluoromethyl)isonicotinoyl]piperidin-4-yl}azetidin-3-yl)-1H-pyrazol-4-yl]-1H-pyrrolo[2,3-b]pyridine-5-carbonitrile] |
| 0.05 to 0.1 | 8.6 | 0.005 to 0.02 | N#CCC1(n2cc(-c3ncnc4[nH]ccc34)cn2)CN(C2CCN(C(=O)Nc3ncc(F)cc3F)CC2)C1 [Example 203, 4-{3-(cyanomethyl)-3-[4-(7H-pyrrolo[2,3-d]pyrimidin-4-yl)-1H-pyrazol-1-yl]azetidin-1-yl}-N-(3,5-difluoropyridin-2-yl)piperidine-1-carboxamide] |
| 0.05 to 0.1 | 22.4 | ≤ 0.005 | N#CCC1(n2cc(-c3ncnc4[nH]ccc34)cn2)CN([C@@H]2CCN(C(=O)c3ccnc(C(F)(F)F)n3)C[C@@H]2F)C1 (relative stereo) [Example 362, {1-(cis-3-Fluoro-1-{[2-(trifluoromethyl)pyrimidin-4-yl]carbonyl}piperidin-4-yl)-3-[4-(7H-pyrrolo[2,3-d]pyrimidin-4-yl)-1H-pyrazol-1-yl]azetidin-3-yl}acetonitrile] |
| ≤ 0.01 | 10.0 | ≤ 0.005 | N#CCC1(n2cc(-c3ccnc4[nH]ccc34)cn2)CN(C2CCN(C(=O)c3ccc(O)cc3F)CC2)C1 [Example 297, {1-[1-(2-fluoro-4-hydroxybenzoyl)piperidin-4-yl]-3-[4-(1H-pyrrolo[2,3-b]pyridin-4-yl)-1H-pyrazol-1-yl]azetidin-3-yl}acetonitrile] |
| ≤ 0.01 | 5.0 | ≤ 0.005 | Cn1cnc(S(=O)(=O)N2CCC(N3CC(CC#N)(n4cc(-c5ncnc6[nH]ccc56)cn4)C3)CC2)c1 [Example 258, {1-{1-[(1-methyl-1H-imidazol-4-yl)sulfonyl]piperidin-4-yl}-3-[4-(7H-pyrrolo[2,3-d]pyrimidin-4-yl)-1H-pyrazol-1-yl]azetidin-3-yl}acetonitrile] |
| 0.05 to 0.1 | 12.2 | ≤ 0.005 | N#CCC1(n2ccc(-c3ncnc4[nH]ccc34)c2)CN(C2CCN(C(=O)c3cc(F)cc(C#N)c3)CC2)C1 [Example 263, 3-[(4-{3-(cyanomethyl)-3-[3-(7H-pyrrolo[2,3-d]pyrimidin-4-yl)-1H-pyrrol-1-yl]azetidin-1-yl}piperidin-1-yl)carbonyl]-5-fluorobenzonitrile] |
| 0.01 to 0.05 | 9.1 | ≤ 0.005 | N#CCC1(n2ccc(-c3ncnc4[nH]ccc34)c2)CN(C2CCN(C(=O)Nc3ncccc3F)CC2)C1 [Example 292, 4-{3-(cyanomethyl)-3-[3-(7H-pyrrolo[2,3-d]pyrimidin-4-yl)-1H-pyrrol-1-yl]azetidin-1-yl}-N-(3-fluoropyridin-2-yl)piperidine-1-carboxamide] |
| 0.01 to 0.05 | 11.0 | ≤ 0.005 | N#CCC1(n2cc(-c3c(F)cnc4[nH]ccc34)cn2)CN(C2CCN(C(=O)c3ccnc(C(F)(F)F)c3F)CC2)C1 [Example 314, (3-[4-(5-Fluoro-1H-pyrrolo[2,3-b]pyridin-4-yl)-1H-pyrazol-1-yl]-1-{1-[3-fluoro-2-(trifluoromethyl)isonicotinoyl]piperidin-4-yl}azetidin-3-yl)acetonitrile] |
| 0.01 to 0.05 | 13.1 | ≤ 0.005 | N#CCC1(n2ccc(-c3ncnc4[nH]ccc34)c2)CN(C2CCN(C(=O)Nc3ccc(F)cc3F)CC2)C1 [Example 286, 4-{3-(cyanomethyl)-3-[3-(7H-pyrrolo[2,3-d]pyrimidin-4-yl)-1H-pyrrol-1-yl]azetidin-1-yl}-N-(2,4-difluorophenyl)piperidine-1-carboxamide] |
| ≤ 0.01 | 5.0 | ≤ 0.005 | N#CCC1(n2cc(-c3c(F)cnc4[nH]ccc34)cn2)CN(C2CCN(C(=O)c3ccc(O)cc3F)CC2)C1 [Example 323, {1-[1-(2-fluoro-4-hydroxybenzoyl)piperidin-4-yl]-3-[4-(5-fluoro-1H-pyrrolo[2,3-b]pyridin-4-yl)-1H-pyrazol-1-yl]azetidin-3-yl}acetonitrile] |
| 0.01 to 0.05 | 8.1 | ≤ 0.005 | N#CCC1(n2cc(-c3ncnc4[nH]ccc34)cn2)CN(C2CCN(C(=O)c3ccc(-c4cccc(C#N)c4)c(F)c3)CC2)C1 [Example 125, 4′-[(4-{3-(cyanomethyl)-3-[4-(7H-pyrrolo[2,3-d]pyrimidin-4-yl)-1H-pyrazol-1-yl]azetidin-1-yl}piperidin-1-yl)carbonyl]-2′-fluorobiphenyl-3-carbonitrile] |
